From US11117901B2, “Substituted pyrazolo[4,3-h]quinazolines as choline kinase inhibitors” (NERVIANO MEDICAL SCIENCES S.R.L., priority 2017, dated 2021)

Assays:
[1] = biological target: T1, hChoKβ FL (Homo sapiens, UniProt Q9Y259); assay: Biochemical kinase inhibition assay (Kinase-Glo luminescent) on hChoKβ FL; settings: recombinant hChoKβ FL 30 nM, ATP 5 μM, choline 20 μM, 60 min rt; read-out: ChoKβ IC50
T1 construct: hChoKβ full length (FL), corresponding to aminoacids 2-395; GST (N, cleaved yes); PreScission Protease recognition site (N); made in house; host or cells: Escherichia coli BL21pLysS (DE3)
T1 sequence (Q9Y259 2-395): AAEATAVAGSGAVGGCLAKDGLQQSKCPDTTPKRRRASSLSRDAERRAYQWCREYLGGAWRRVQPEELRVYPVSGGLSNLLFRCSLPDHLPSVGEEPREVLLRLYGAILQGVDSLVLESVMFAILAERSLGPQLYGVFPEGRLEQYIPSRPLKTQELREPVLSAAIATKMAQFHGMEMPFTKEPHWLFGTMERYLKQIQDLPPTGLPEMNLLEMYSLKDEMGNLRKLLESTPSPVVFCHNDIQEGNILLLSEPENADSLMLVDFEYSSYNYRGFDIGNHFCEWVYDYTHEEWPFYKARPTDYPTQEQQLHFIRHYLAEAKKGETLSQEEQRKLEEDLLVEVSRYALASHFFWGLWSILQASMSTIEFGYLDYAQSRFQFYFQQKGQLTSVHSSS
Experimental: (§1) HumanΔ49ChoKα ([…]Δ49N-hChoKα) cDNA fragment 362-1534, corresponding to aminoacids 50 457 (J. Mol. Biol. 2006, 364, 136-151), and hChoKβ full length (FL), corresponding to aminoacids 2-395 ((PLoS ONE 2009, 4, e7819), were amplified by PCR from human library and cloned, inserting upstream a Prescission Protease recognition site, in pDonor 221 vector, using the Gateway Technology® (Invitrogen). After sequence control, LR reaction was performed in the final expression pGEX 2Tg vector. Both the proteins were expressed in Escherichia coli BL21pLysS (DE3) strain in auto-induction (Kessler) medium in the presence of […] carbenicillin at 25° C. for 16 h. Cells were harvested by centrifugation, the pellet was re-suspended in Lysis buffer (50 mM Tris-HCl pH 7.8, 150 mM NaCl, 10% glycerol, 0.2% CHAPS, 20 mM DTT, Protease Inhibitor Cocktail Tablets from Roche Biochemicals) and lysed by Gaulin homogenizer (Niro Soavi). The lysate was cleared by centrifugation. The supernatant was added to GSH resin and let flow by gravity. The GSH resin was washed with 5 column volume (CV) of cold wash buffer (50 mM Tris-HCl pH 7.8, 150 mM NaCl, 10% glycerol), then with 10 CV of the same buffer containing 2 mM of DTT. Both GST-Δ49N-hChoKα and hChoKβ were subjected to on-column cleavage of the GST tag with Prescission Protease overnight. The eluted cleaved proteins were further purified by ion exchange (ResQ 6 mL chromatography column from GE healthcare) with a gradient from 50 to 500 mM NaCl in 30 CV. The fractions containing […]Δ49N-hChoKα or hChoKβ were pooled, concentrated and gel filtered on a Superdex200 16/60 (GE Healthcare). The final protein concentration was estimated using the Bradford assay. All the samples purified were resolved by SDS-PAGE.
(§2) Biochemical Kinase inhibition Assay on Δ49N-hChoKα and hChoKβFL
(§3) The biochemical activity of compounds against Δ49N-ChoKα and ChoK3 FL were determined using the Kinase-Glo™ Luminescent Kinase Assay (Promega cat. V6711). The assay is based on incubation of the recombinant Δ49N-hChoKα and hChoKβ FL produced in house, 2.2 nM and 30 nM, respectively, with the specific substrates, choline (Sigma-Aldrich-C7017) and ATP, followed by quantification, at the end of reaction time, of the residual not reacted ATP.
(§4) Compounds were 3-fold serially diluted from 10 to 0.0005 μM, then incubated for 60 minutes at room temperature in the presence of ATP 5 μM, choline (5 μM for ChoKα and 20 μM for ChoKβ) and enzyme in a final volume of 19 μL of kinase buffer (50 mM Hepes pH 7.5, 10 mM MgCl2, 1 mM DTT, 3 μM Na3VO4 and 0.2 mg/mL BSA). The final concentration of DMSO was 1%. The assay was run in a robotized format on 384-well plates (Perkin Elmer cat. #6005301).
(§5) At the end of the incubation, an amount of 19 μL of KinaseGlo Reagent was added to each well to stop the reaction and after 30 minutes the luminescence signal was measured using ViewLux reader (Perkin Elmer).
(§6) All information about plate dilution, distribution and raw data of inhibition are tracked via barcode reading and stored in an Oracle DB. The data per each molecule are analyzed by an internally customized version of the SW package “Assay Explorer” which provides sigmoidal fittings of the ten-dilution curves for IC50 determination using a 4 parameter logistic equation: y=bottom+(top−bottom)/(1+10^((log IC50−x)*slope)) where x is the logarithm of the inhibitor concentration, y is the response; y starts at bottom and goes to top with a sigmoid shape.

[2] = biological target: T2, Δ49N-hChoKα (Homo sapiens, UniProt P35790); assay: Biochemical kinase inhibition assay (Kinase-Glo luminescent) on Δ49N-hChoKα; settings: recombinant Δ49N-hChoKα 2.2 nM, ATP 5 μM, choline 5 μM, 60 min rt; read-out: ChoKα IC50
T2 construct: cDNA fragment 362-1534, corresponding to aminoacids 50 457; GST (N, cleaved yes); PreScission Protease recognition site (N); made in house; host or cells: Escherichia coli BL21pLysS (DE3)
T2 sequence (P35790 50-439 isoform P35790-2): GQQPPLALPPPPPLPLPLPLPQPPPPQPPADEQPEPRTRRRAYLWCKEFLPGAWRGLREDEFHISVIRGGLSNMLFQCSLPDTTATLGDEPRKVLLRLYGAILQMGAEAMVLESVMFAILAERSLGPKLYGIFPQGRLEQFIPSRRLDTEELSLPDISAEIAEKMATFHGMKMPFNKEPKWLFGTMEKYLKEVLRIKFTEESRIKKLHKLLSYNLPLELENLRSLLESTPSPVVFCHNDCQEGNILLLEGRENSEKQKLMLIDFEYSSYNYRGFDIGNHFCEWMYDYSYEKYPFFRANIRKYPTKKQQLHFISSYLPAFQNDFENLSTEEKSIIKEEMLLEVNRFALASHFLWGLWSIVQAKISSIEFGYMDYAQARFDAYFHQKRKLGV
Experimental: as §1, §2, §3, §4, §5, §6

SMILES	IC50 [1] [nM]	IC50 [2] [nM]
CC1(C)Cc2cnc(N)nc2-c2[nH]nc(C(=O)Nc3ccc(C(=O)N4CCC(NC(=O)CCCO)CC4)cc3)c21 [compound 53]	3510	715
CC1(C)Cc2cnc(N)nc2-c2[nH]nc(C(=O)Nc3ccc(C(=O)N4CCC(N5CCOC5=O)CC4)cc3)c21 [compound 56]	810	210
CC1(C)Cc2cnc(N)nc2-c2[nH]nc(C(=O)Nc3ccc(C(=O)Nc4ccc(CN5CCCCC5)cc4)cc3)c21 [compound 59]	734	32
CC1(C)Cc2cnc(N)nc2-c2[nH]nc(C(=O)Nc3nccs3)c21 [compound 61]	2630	241
CC1(C)Cc2cnc(N)nc2-c2[nH]nc(C(=O)Nc3nc4ccccc4s3)c21 [compound 62]	465	85
COc1ccc2nc(NC(=O)c3n[nH]c4c3C(C)(C)Cc3cnc(N)nc3-4)sc2c1 [compound 63]	447	26
CC1(C)Cc2cnc(N)nc2-c2[nH]nc(C(=O)Nc3nc4ccc(Cl)cc4s3)c21 [compound 64]	4920	306
Cc1cnc(NC(=O)c2n[nH]c3c2C(C)(C)Cc2cnc(N)nc2-3)s1 [compound 65]	1610	139
CC1(C)Cc2cnc(N)nc2-c2[nH]nc(C(=O)Nc3ncc(Cl)s3)c21 [compound 66]	5810	710
CC1(C)Cc2cnc(N)nc2-c2[nH]nc(C(=O)Nc3nc(C(=O)O)cs3)c21 [compound 67]	703	81
CN1CCC(NC(=O)c2csc(NC(=O)c3n[nH]c4c3C(C)(C)Cc3cnc(N)nc3-4)n2)CC1 [compound 69]	88	36
CC(C)(C)NC(=O)NC1CCN(C(=O)Cc2csc(NC(=O)c3n[nH]c4c3C(C)(C)Cc3cnc(N)nc3-4)n2)CC1 [compound 71]	1950	9
Cc1nc(NC(=O)c2n[nH]c3c2C(C)(C)Cc2cnc(N)nc2-3)sc1C(=O)NC1CCCCC1 [compound 77]	1160	200
Cc1nc(NC(=O)c2n[nH]c3c2C(C)(C)Cc2cnc(N)nc2-3)sc1C(=O)NC1CCN(C)CC1 [compound 79]	2380	69
CC1CCN(C2CCN(C(=O)Cc3csc(NC(=O)c4nn(C)c5c4C(C)(C)Cc4cnc(N)nc4-5)n3)CC2)CC1 [compound 80]	3160	5
CCOC(=O)c1cnc(NC(=O)c2n[nH]c3c2C(C)(C)Cc2cnc(N)nc2-3)s1 [compound 81]	5340	428
CC1(C)Cc2cnc(N)nc2-c2[nH]nc(C(=O)Nc3ncc(C(=O)O)s3)c21 [compound 82]	1730	300

Now from value to molecule:

IC50 [1] [nM]	IC50 [2] [nM]	SMILES
81	2	CC1CCN(C2CCN(C(=O)Cc3csc(NC(=O)c4n[nH]c5c4C(C)(C)Cc4cnc(N)nc4-5)n3)CC2)CC1 [compound 58]
> 10000	161	CC1(C)Cc2cnc(N)nc2-c2[nH]nc(C(=O)Nc3nc(C(=O)NC4CCCCC4)cs3)c21 [compound 68]
1080	35	CC1(C)Cc2cnc(N)nc2-c2[nH]nc(C(=O)Nc3nc(C(=O)N4CCC(N5CCCCC5)CC4)cs3)c21 [compound 70]
2510	268	CC1(C)Cc2cnc(N)nc2-c2[nH]nc(C(=O)Nc3ncc(CC(=O)O)s3)c21 [compound 72]
604	138	CC1(C)Cc2cnc(N)nc2-c2[nH]nc(C(=O)Nc3ncc(CC(=O)NC4CCCCC4)s3)c21 [compound 73]
1350	79	CN1CCC(NC(=O)Cc2cnc(NC(=O)c3n[nH]c4c3C(C)(C)Cc3cnc(N)nc3-4)s2)CC1 [compound 74]
1750	47	CC1(C)Cc2cnc(N)nc2-c2[nH]nc(C(=O)Nc3ncc(CC(=O)N4CCC(N5CCCCC5)CC4)s3)c21 [compound 75]
2590	218	Cc1nc(NC(=O)c2n[nH]c3c2C(C)(C)Cc2cnc(N)nc2-3)sc1C(=O)N1CCC(N2CCCCC2)CC1 [compound 78]
